Entries after “also recorded” stand apart in the source; their conditions may differ.

One data set can be described thus: in vivo. To be noted: rat, iv; for AUC(0-inf) / Cmax: 10 mg/kg/day.
In the next data set the test system is mouse neutrophils. Description: ROS release assay in mouse neutrophils. In kind it is cell-based. The following applies: fMLP (1 μM). How it is done: (§1) Mouse bone marrow neutrophils were isolated from long bones. After lysis of red blood cells (RBCs) with ACK buffer (155 mM NH4Cl, 10 mM KHCO3 and 127 μM EDTA), bone marrow cells were separated on a discontinuous Percoll gradient composed of 81%, 62%, and 45% Percoll. Neutrophils were collected at the interphase between 81% and 62% Percoll, washed in HBSS, and used for assays.
(§2) For measurement of extracellular ROS release, isolated neutrophils were placed in the reaction buffer (0.25% BSA in HBSS with Ca^2+ and Mg^2+, 10 mM Isoluminol, 100 u/ml HRP) and stimulated with fMLP or PMA. For measurement of total ROS production, neutrophils were incubated with the reaction buffer (0.25% BSA in HBSS with Ca^2+ and Mg^2+, 10 mM Luminol, 100 u/ml HRP), followed with stimulations. Chemiluminescence was read continuously in a plate reader (Perkin Elmer). For reconstituted ROS production system in COS-7 cells, PMA (2 μM) was used for stimulation.

The test system of data set [1] is murine hepatitis virus strain 1 (MHV-1). The data set is described as follows: Pazopanib IV in the MHV-1 mouse model. In kind it is in vivo, A/J mice. How it is done: The murine hepatitis virus strain 1 (MHV-1) model was adopted for the pharmacology study. All MHV-1-infected A/J mice developed progressive interstitial edema, neutrophil/macrophage infiltrates, and hyaline membranes, leading to the death of all mice. Two studies have been completed to date. In the first one, mice were administered a 3-dose regimen of the study intervention at 6, 21, and 32 hours after virus inoculation. In the second, mice were administered a 2-dose regimen at 24 and 33 hours after inoculation.
A/J mice, 8 to 10 weeks old, were anaesthetized by Ketamine/Xylazine (100 and 10 mg/kg) and were kept under anesthesia during the whole procedure using Ketamine/Xylazine. After being deeply anesthetized (assessed by applying a noxious stimulus, e.g., toe pinch, and observing no reflex response and no change in either the rate or character of respiration), mice received an intranasal inoculation of 5000 PFU MHV-1 in 20 μL Dulbecco's modified Eagle's medium. After the administration, the mice were monitored until their breathing gradually returned to normal. Then the mice were returned to the recovery cage on the heating pad and monitored for their anesthesia status. […] The green fluorescence of BAL was measured by the plate reader. BAL fluorescence intensities from pazopanib-treated mice were normalized to the intensities from vehicle-control-treated mice wherein higher intensity corresponds to greater permeability.
A/J mice, 8-10 weeks old, were anaesthetized by Ketamine/Xylazine (100 and 10 mg/kg) and were kept under anesthesia during the whole procedure using Ketamine/Xylazine. After being deeply anesthetized (assessed by applying a noxious stimulus, e.g., toe pinch, and observing no reflex response and no change in either the rate or character of respiration), mice received an intranasal inoculation of 6000 PFU MHV-1 in 20 μL Dulbecco's modified Eagle's medium. After the administration, the mice were monitored until their breathing gradually returned to normal. Then the mice were returned to the recovery cage on the heating pad and monitored for their anesthesia status. […]

The subject of another data set is ERK phosphorylation. Description: ERK phosphorylation in mouse neutrophils. In kind it is cell-based. As for the experimental part: as §1
For data set [2] the following is noted: 800 mg orally once daily in cancer patients; cited from earlier work.
Another data set deals with human neutrophils. Description: ROS production assay in human neutrophils. The following applies: 100 nM fMLP. In kind it is cell-based. As for the experimental part:
as §2
Buffy coat of human blood samples were subjected to neutrophil enrichment using the EasySep Human Neutrophil Enrichment Kit (Stemceli Technologies) according to manufacturer's protocol. Briefly, the depletion antibody cocktail was mixed with the buffy coat followed by incubation with magnetic particles. The EasySep Magnet was then used to immobilize unwanted cells as the label-free neutrophils were poured into another conical tube. Enriched neutrophils were pelleted and resuspended in an assay buffer (Hanks buffer with Ca^2+ and Mg^2+, 0.25% BSA) for ROS production assay or Western analysis.

Data set [3] has as its system brain ischemia-reperfusion injury (IRI). Description: Intraluminal middle cerebral artery (MCA) occlusion brain stroke mouse model. It counts as in vivo.
Data set [4] relates to p47^phox phosphorylation at Ser-208. The data set is described as follows: Western analysis of p47^phox Ser-208 phosphorylation in fMLP-stimulated neutrophils. It counts as cell-based. The following applies: fMLP (1 μM) stimulated mouse neutrophils. As for the experimental part: as §1
A further data set concerns MAP3K3. The data set is described as follows: Western analysis of MAP3K3 protein content induced by fMLP in neutrophils. It counts as cell-based. To be noted: mouse neutrophils. As for the experimental part:
as §1

Where [5] appears, read: drug given during ischemic phase.
Setting [6] is: given i.v. 0.5 hrs after reperfusion.

The AUC(0-inf) is the area under the concentration-time curve extrapolated to infinity. Lower therefore signals less exposure. By Cmax is commonly meant the highest concentration seen after dosing. What is called NOAEL is the highest tested level that showed no adverse finding. Take `Cc1ccc(Nc2nccc(N(C)c3ccc4c(C)n(C)nc4c3)n2)cc1S(N)(=O)=O` [pazopanib, 5-((4-((2,3-dimethyl-2H-indazol-6-yl)(methyl)amino)pyrimidin-2-yl)amino)-2-methylbenzenesulfonamide]: the AUC(0-inf) turned out to be 276 µg·h/mL in “in vivo” (female) and 278 µg·h/mL in “in vivo” (male). Also, the figures for the Cmax in “in vivo” (female) and in the data set “in vivo” (male) were 47 µg/mL and 55 µg/mL, respectively. For the same compound, the no observed adverse effect level (NOAEL) at 2 weeks in “in vivo” is 10 mg/kg/day. In the data set “in vivo”, this compound displayed an NOAEL at 14 days of 10 mg/kg. The ROS production entry is listed as “increases in ROS production” with mouse neutrophils (WT mouse neutrophils); “increases ROS release” with mouse neutrophils (WT mouse neutrophils, listed as Pazopanib); “failed to elevate ROS production” with mouse neutrophils (p47^phox-KI neutrophils, 20 nM pazopanib); “increases ROS production” with human neutrophils. Also, in [1] (assuming 70 kg human), the “projected clinical efficacious dose” value is “approximately 16.8 mg”. Also, the “human equivalent dose of efficacious dose” value in data set [1] (from 3 mg/kg in mouse) worked out at 0.24 mg/kg. Besides, in [1] (mouse coronavirus-induced lung injury model), the efficacious dose result is recorded as “approximately 3 mg/kg”. For the same compound, in the data set on ERK phosphorylation, the ERK phosphorylation entry was “did not affect”. In data set [2], the tolerability result was “well-tolerated”. Also, the “brain IRI” value in data set [3] (60 μg retro-orbital intravenous injection 30 min after reperfusion) is reported as “reduces brain IRI”; in [3] (60 μg retro-orbital intravenous injection immediately after reperfusion), “fails to reduce brain IRI”. Moreover, the “infarct size of the brain” value in data set [3] (setting [5]) is reported as “no improvement”. Further, the neurological score result in data set [3] (setting [5]) is on record as “no improvement”. Moreover, the infarct size result in [3] (setting [6]) is reported as “less infarct size”. In data set [3] (setting [6]), the neurological deficit score result is listed as “improved neurological deficit score”. Also, the “p47^phox phosphorylation at Ser-208 in neutrophils” value in [4] was “inhibit p47^phox phosphorylation at Ser-208; also recorded: inhibits phosphorylation of Ser-208 of p47^phox”. Further, the “increase in MAP3K3 protein content induced by fMLP” value with MAP3K3 is reported as “abrogated the increase in MAP3K3 protein content”.

Source of the values: US20230026808A1, “COMPOUNDS, COMPOSITIONS, AND METHODS FOR TREATING ISCHEMIA-REPERFUSION INJURY AND/OR LUNG INJURY” (YALE UNIVERSITY, priority 2019, published 2023).
